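How tested: cells in 96-well plates exposed to compound for 48 hours at five concentrations. GI50 is the concentration that inhibits growth by half. TGI: total growth inhibition.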
Key:
Experiment in all cases: NCI tumour cell line growth inhibition, 48 h
RPMI-8226 leukemia = tested on: RPMI-8226 leukemia
IGROV1 ovarian = tested on: IGROV1 ovarian
DU-145 prostate = tested on: DU-145 prostate
OVCAR-8 ovarian = tested on: OVCAR-8 ovarian
UACC-62 melanoma = tested on: UACC-62 melanoma
SR leukemia = tested on: SR leukemia
SF-295 CNS = tested on: SF-295 CNS
KM12 colon = tested on: KM12 colon
HOP-92 NSCLC = tested on: HOP-92 NSCLC
MCF7 breast = tested on: MCF7 breast
UO-31 renal = tested on: UO-31 renal
OVCAR-3 ovarian = tested on: OVCAR-3 ovarian
HS 578T breast = tested on: HS 578T breast
SN12C renal = tested on: SN12C renal
COLO 205 colon = tested on: COLO 205 colon
HCT-15 colon = tested on: HCT-15 colon
SW-620 colon = tested on: SW-620 colon
MDA-MB-231 breast = tested on: MDA-MB-231 breast
MALME-3M melanoma = tested on: MALME-3M melanoma
NCI/ADR-RES ovarian = tested on: NCI/ADR-RES ovarian
M14 melanoma = tested on: M14 melanoma
NCI-H23 lung = tested on: NCI-H23 lung
SF-268 CNS = tested on: SF-268 CNS
HL-60(TB) leukemia = tested on: HL-60(TB) leukemia
786-0 renal = tested on: 786-0 renal
NCI-H460 lung = tested on: NCI-H460 lung
HOP-62 NSCLC = tested on: HOP-62 NSCLC
HT29 colon = tested on: HT29 colon
SNB-19 CNS = tested on: SNB-19 CNS
SK-MEL-28 melanoma = tested on: SK-MEL-28 melanoma
HCC-2998 colon = tested on: HCC-2998 colon
HCT-116 colon = tested on: HCT-116 colon
BT-549 breast = tested on: BT-549 breast
U251 CNS = tested on: U251 CNS
T-47D breast = tested on: T-47D breast
ACHN renal = tested on: ACHN renal
MOLT-4 leukemia = tested on: MOLT-4 leukemia
SK-MEL-5 melanoma = tested on: SK-MEL-5 melanoma
CCRF-CEM leukemia = tested on: CCRF-CEM leukemia
EKVX NSCLC = tested on: EKVX NSCLC
UACC-257 melanoma = tested on: UACC-257 melanoma
LOX IMVI melanoma = tested on: LOX IMVI melanoma
A498 renal = tested on: A498 renal
K-562 leukemia = tested on: K-562 leukemia
SNB-75 CNS = tested on: SNB-75 CNS
A549 NSCLC = tested on: A549 NSCLC
OVCAR-4 ovarian = tested on: OVCAR-4 ovarian
PC-3 prostate = tested on: PC-3 prostate
SF-539 CNS = tested on: SF-539 CNS
MDA-MB-435 = tested on: MDA-MB-435
RXF 393 renal = tested on: RXF 393 renal
NCI-H226 lung = tested on: NCI-H226 lung
NCI-H522 lung = tested on: NCI-H522 lung
TK-10 renal = tested on: TK-10 renal
OVCAR-5 ovarian = tested on: OVCAR-5 ovarian
SK-OV-3 ovarian = tested on: SK-OV-3 ovarian

In the case of CC/C(=C(\c1ccc(Cl)cc1)c1ccc(OCCN2CCCCC2)cc1)c1ccc(O)cc1, the GI50 (RPMI-8226 leukemia) is reported as 1.86 µM, the TGI (RPMI-8226 leukemia) is reported as 4.1 µM and the GI50 (IGROV1 ovarian) is reported as 1.91 µM. It also gave a TGI (IGROV1 ovarian) of 3.94 µM, a GI50 (DU-145 prostate) of 1.87 µM and a TGI (DU-145 prostate) of 3.58 µM. For the same compound, the GI50 (OVCAR-8 ovarian) was 2.11 µM, the TGI (OVCAR-8 ovarian) was 5.2 µM and the GI50 (UACC-62 melanoma) was 1.71 µM. For the same compound, the TGI (UACC-62 melanoma) was 3.25 µM, the GI50 (SR leukemia) was 1.9 µM and the TGI (SR leukemia) was 4.51 µM. For the same compound, the GI50 (SF-295 CNS) was 1.72 µM, the TGI (SF-295 CNS) was 3.13 µM and the GI50 (KM12 colon) was 1.9 µM. It also gave a TGI (KM12 colon) of 3.74 µM, a GI50 (HOP-92 NSCLC) of 1.5 µM and a TGI (HOP-92 NSCLC) of 3.2 µM. The GI50 (MCF7 breast) was 0.0622 µM, the TGI (MCF7 breast) was 2.63 µM and the GI50 (UO-31 renal) was 1.37 µM. It also gave a TGI (UO-31 renal) of 2.66 µM, a GI50 (OVCAR-3 ovarian) of 1.91 µM and a TGI (OVCAR-3 ovarian) of 3.63 µM. It also gave a GI50 (HS 578T breast) of 1.78 µM, a TGI (HS 578T breast) of 4.51 µM and a GI50 (SN12C renal) of 1.69 µM. The TGI (SN12C renal) was 3.23 µM, the GI50 (COLO 205 colon) was 1.82 µM and the TGI (COLO 205 colon) was 3.86 µM. The GI50 (HCT-15 colon) was 1.61 µM, the TGI (HCT-15 colon) was 3.15 µM and the GI50 (SW-620 colon) was 1.75 µM. For the same compound, the TGI (SW-620 colon) was 3.42 µM, the GI50 (MDA-MB-231 breast) was 1.81 µM and the TGI (MDA-MB-231 breast) was 3.29 µM. It also gave a GI50 (MALME-3M melanoma) of 1.75 µM, a TGI (MALME-3M melanoma) of 3.33 µM and a GI50 (NCI/ADR-RES ovarian) of 1.75 µM. For the same compound, the TGI (NCI/ADR-RES ovarian) was 3.8 µM, the GI50 (M14 melanoma) was 1.88 µM and the TGI (M14 melanoma) was 3.77 µM. For the same compound, the GI50 (NCI-H23 lung) was 1.88 µM, the TGI (NCI-H23 lung) was 3.84 µM and the GI50 (SF-268 CNS) was 1.75 µM. It also gave a TGI (SF-268 CNS) of 3.8 µM, a GI50 (HL-60(TB) leukemia) of 1.91 µM and a TGI (HL-60(TB) leukemia) of 4.17 µM. The GI50 (786-0 renal) was 1.81 µM, the TGI (786-0 renal) was 3.43 µM and the GI50 (NCI-H460 lung) was 1.82 µM. For the same compound, the TGI (NCI-H460 lung) was 3.37 µM, the GI50 (HOP-62 NSCLC) was 1.77 µM and the TGI (HOP-62 NSCLC) was 3.48 µM. The GI50 (HT29 colon) was 2.19 µM, the TGI (HT29 colon) was 5.09 µM and the GI50 (SNB-19 CNS) was 1.9 µM. The TGI (SNB-19 CNS) was 3.54 µM, the GI50 (SK-MEL-28 melanoma) was 1.77 µM and the TGI (SK-MEL-28 melanoma) was 3.33 µM. For the same compound, the GI50 (HCC-2998 colon) was 1.85 µM, the TGI (HCC-2998 colon) was 3.46 µM and the GI50 (HCT-116 colon) was 1.98 µM. For the same compound, the TGI (HCT-116 colon) was 4.26 µM, the GI50 (BT-549 breast) was 2.06 µM and the TGI (BT-549 breast) was 4.2 µM. The GI50 (U251 CNS) was 1.6 µM, the TGI (U251 CNS) was 3.16 µM and the GI50 (T-47D breast) was 1.22 µM. It also gave a TGI (T-47D breast) of 3.83 µM, a GI50 (ACHN renal) of 1.7 µM and a TGI (ACHN renal) of 3.08 µM. For the same compound, the GI50 (MOLT-4 leukemia) was 1.76 µM, the TGI (MOLT-4 leukemia) was 4.43 µM and the GI50 (SK-MEL-5 melanoma) was 1.68 µM. It also gave a TGI (SK-MEL-5 melanoma) of 3.04 µM, a GI50 (CCRF-CEM leukemia) of 1.91 µM and a TGI (CCRF-CEM leukemia) of 4.93 µM. The GI50 (EKVX NSCLC) was 1.91 µM, the TGI (EKVX NSCLC) was 4.35 µM and the GI50 (UACC-257 melanoma) was 1.83 µM. For the same compound, the TGI (UACC-257 melanoma) was 3.94 µM, the GI50 (LOX IMVI melanoma) was 1.67 µM and the TGI (LOX IMVI melanoma) was 3.03 µM. It also gave a GI50 (A498 renal) of 3.31 µM, a TGI (A498 renal) of 16.5 µM and a GI50 (K-562 leukemia) of 1.6 µM. The TGI (K-562 leukemia) was 4.62 µM, the GI50 (SNB-75 CNS) was 1.49 µM and the TGI (SNB-75 CNS) was 3.64 µM. For the same compound, the GI50 (A549 NSCLC) was 1.81 µM, the TGI (A549 NSCLC) was 3.7 µM and the GI50 (OVCAR-4 ovarian) was 1.97 µM. The TGI (OVCAR-4 ovarian) was 4.35 µM, the GI50 (PC-3 prostate) was 1.66 µM and the TGI (PC-3 prostate) was 3.36 µM. It also gave a GI50 (SF-539 CNS) of 1.7 µM, a TGI (SF-539 CNS) of 3.11 µM and a GI50 (MDA-MB-435) of 1.72 µM. It also gave a TGI (MDA-MB-435) of 3.2 µM, a GI50 (RXF 393 renal) of 1.45 µM and a TGI (RXF 393 renal) of 2.92 µM. It also gave a GI50 (NCI-H226 lung) of 1.85 µM, a TGI (NCI-H226 lung) of 4.34 µM and a GI50 (NCI-H522 lung) of 2.01 µM. The TGI (NCI-H522 lung) was 4.44 µM, the GI50 (TK-10 renal) was 1.96 µM and the TGI (TK-10 renal) was 4.58 µM. It also gave a GI50 (OVCAR-5 ovarian) of 1.86 µM, a TGI (OVCAR-5 ovarian) of 4.04 µM and a GI50 (SK-OV-3 ovarian) of 2.01 µM. It also gave a TGI (SK-OV-3 ovarian) of 4.88 µM.
